# Where no end group is shown, it is not given here. The star is where a group is joined. Acm = CC(=O)NC*
# Tests used:
# Format in all cases: cell-based
# [1] = test system: human neutrophils; assay: Chemiluminescence assay: priming of neutrophils for F-met-leu-phe response (respiratory burst); conditions: for lucigenin dependent chemiluminescence, peak of response: 20 min pretreatment before f-met-leu-phe; for Chemiluminescence mean + sem: priming neutrophils for respiratory burst; for Chemiluminescence, neutrophil respiratory burst: 100 ug peptide, second, Table 4; for chemiluminescence (repeat experiment, Table 3): peptide + fMLP
# Procedure: Purified human neutrophils were pretreated with peptide for 20 minutes before the addition of f-met-leu-phe. The lucigenin dependent chemiluminescence response, which reflects superoxide production, was then measured. The results obtained are set out in Table 2 and are expressed as mV of lucigenin dependent chemiluminescence and represent the maximal cell activity attained.
# Results are expressed as mV of lucigenin dependent chemiluminescence and represent peak of response i.e. the maximal cell activity attained.
# [2] = test system: monocytes; assay: Priming of monocytes for a respiratory burst (chemiluminescence); conditions: with fMLP; 10^6 monocytes/tube/ml; 419 100 μg/10^6 monocytes, 50 U TNF or no pre-treatment, 30 min pre-incubation 37° C.
# Procedure: Peptide 419 (SEQ ID NO. 18) was assayed for its ability to prime monocytes for a respiratory burst. This assay was conducted essentially as described above for neutrophils except that the cells were cultured for 24 hours prior to assay.
# [3] = test system: neutrophils; assay: Chemotactic properties, neutrophil migration under agarose; conditions: towards agent well; 1 × 10^−7 M fMLP, peptide, or 10^3 U/ml TNFα; 2×10^5 neutrophils
# Procedure: 5 μl of neutrophils (2×10^5 cells) were added to the inner well, with chemotactic agent or control medium added to the outer wells. Migration at various time intervals was then measured.
# [4] = test system: neutrophils; assay: Neutrophil degranulation: Vitamin B12 binding protein release (specific granules); conditions: for Vitamin B12 Binding Protein, Exp. 1 / Vitamin B12 Binding Protein, Exp. 2 / Vitamin B12 Binding Protein, Exp. 3 / Vitamin B12 Binding Protein, Exp. 4: in the presence of CytoB
# [5] = test system: human neutrophils; assay: Chemiluminescence assay: priming of neutrophils for F-met-leu-phe response (respiratory burst); conditions: peptide alone
# [6] = test system: neutrophils; assay: Neutrophil degranulation: β-glucuronidase release (azurophilic granules); conditions: for β-glucuronidase release, Exp. 1 / β-glucuronidase release, Exp. 2 / β-glucuronidase release, Exp. 3 / β-glucuronidase release, Exp. 4: in the presence of CytoB
# [7] = test system: neutrophils; assay: Neutrophil random migration out of wells in agarose
# Text: Migration of cells is an important property by which cells reach infection sites. Their accumulation at these sites is also dependent on the capacity of inflammatory mediators to inhibit their migration out of the sites.
# [8] = test system: neutrophils; assay: Superoxide formation, cytochrome reduction assay
# Text: The effect of peptides 308 and 309 (SEQ ID NOs. 10 & 11) on superoxide formation was examined by the cytochrome reduction assay, according to the procedure of Ferrante, 1989 (Infection and Immunity), 57: 2115-2122). The results, expressed as n moles of O2/5×10^5 cells as set out in Table 6.
# [9] = peptide 100 μg/10^6 cells (or HBSS) + fMLP
# [10] = peptide 100 μg/10^6 cells, no fMLP
compound,measurement,setting,value
V R S S S R T P S D K P V A H V V A (VRSSSRTPSDKPVAHVVA) [Peptide 301],"lucigenin dependent chemiluminescence, peak of response",[1]; peptide 1 μg/10^6 cells,0.93 mV
same,"lucigenin dependent chemiluminescence, peak of response",[1]; peptide 10 μg/10^6 cells,0.74 mV
same,"lucigenin dependent chemiluminescence, peak of response",[1]; peptide 100 μg/10^6 cells,0.55 mV
same,"lucigenin dependent chemiluminescence, peak of response",[1]; peptide 500 μg/10^6 cells,1.10 mV
"K G Q G Cys (Acm) P S T H V L L T H T (KGQGC(Acm)PSTHVLLTHT) [Peptide 462, reference compound]",priming of neutrophils for the respiratory burst associated with f-met-leu-phe treatment (in words),[1],does not possess the biological activity of those peptides
same,Chemiluminescence mean + sem,[1]; 1 μg peptide,3.1 ± 0.5 mV
same,Chemiluminescence mean + sem,[1]; 10 μg peptide,4.8 ± 0.7 mV
same,Chemiluminescence mean + sem,[1]; 100 μg peptide,4.8 ± 0.5 mV
L T H T I S R I A (LTHTISRIA) [Peptide 393],"Chemiluminescence, neutrophil respiratory burst",[1],0.31 mV
S R I A V S Y Q T K V N L L (SRIAVSYQTKVNLL) [Peptide 394],"Chemiluminescence, neutrophil respiratory burst",[1],0.33 mV
L S A I K S P C Q R E T P E G A (LSAIKSPCQRETPEGA) [Peptide 303],"lucigenin dependent chemiluminescence, peak of response",[1]; peptide 1 μg/10^6 cells,0.23 mV
same,"lucigenin dependent chemiluminescence, peak of response",[1]; peptide 10 μg/10^6 cells,0.17 mV
same,"lucigenin dependent chemiluminescence, peak of response",[1]; peptide 100 μg/10^6 cells,0.22 mV
A V S Y Q T K V N L L (AVSYQTKVNLL) [Peptide 396],"Chemiluminescence, neutrophil respiratory burst",[1],0.70 mV
L S A E I N R P D Y L D F A E S G Q V (LSAEINRPDYLDFAESGQV) [Peptide 305],"lucigenin dependent chemiluminescence, peak of response",[1]; peptide 1 μg/10^6 cells,0.27 mV
same,"lucigenin dependent chemiluminescence, peak of response",[1]; peptide 10 μg/10^6 cells,0.36 mV
same,"lucigenin dependent chemiluminescence, peak of response",[1]; peptide 100 μg/10^6 cells,0.24 mV
"CSCC[C@H](NC=O)C(=O)N[C@@H](CC(C)C)C(=O)N[C@@H](Cc1ccccc1)C(=O)O [fMLP, N-formyl-L-methionyl-L-leucyl-L-phenylalanine, reference compound]","Peak mV Chemiluminescence, Mean ± S.D.",[2],109.0 ± 7.071 mV
same,"Peak mV Chemiluminescence, experiment 2",[2],114.0 mV
same,"Migration distance at 1.5 h, Agent",[3],1.46 mm
same,"Migration distance at 2.5 h, Agent",[3],2.45 mm
LFKGQGCPSTHVLLTHTISRI (LFKGQGCPSTHVLLTHTISRI) [Peptide 304],"release from specific granules (Vitamin B12 binding protein), in words",[4]; absence of fMLP,no effect
same,"Vitamin B12 Binding Protein, Exp. 1",[4]; [9],43.76
same,"Vitamin B12 Binding Protein, Exp. 2",[4]; [9],35.60
same,"Vitamin B12 Binding Protein, Exp. 3",[4]; [9],59.15
same,"Vitamin B12 Binding Protein, Exp. 4",[4]; [9],37.12
same,"Vitamin B12 Binding Protein, Exp. 1",[4]; [10],11.40
same,"Vitamin B12 Binding Protein, Exp. 2",[4]; [10],10.82
same,"Vitamin B12 Binding Protein, Exp. 3",[4]; [10],13.06
same,"Vitamin B12 Binding Protein, Exp. 4",[4]; [10],8.42
same,"release from specific granules (Vitamin B12 binding protein), in words",[4]; presence of fMLP,enhanced release from specific granules
same,"chemiluminescence (repeat experiment, Table 3)",[5]; 10 μg/10^6 cells,0.36 mV
same,"chemiluminescence (repeat experiment, Table 3)",[5]; 100 μg/10^6 cells,0.64 mV
same,"release from azurophilic granules (β-glucuronidase), in words",[6]; absence of fMLP,no effect
same,"β-glucuronidase release, Exp. 1",[6]; [9],26.95%
same,"β-glucuronidase release, Exp. 2",[6]; [9],36.43%
same,"β-glucuronidase release, Exp. 3",[6]; [9],35.34%
same,"β-glucuronidase release, Exp. 4",[6]; [9],36.65%
same,"β-glucuronidase release, Exp. 1",[6]; [10],3.63%
same,"β-glucuronidase release, Exp. 2",[6]; [10],3.14%
same,"β-glucuronidase release, Exp. 3",[6]; [10],2.52%
same,"β-glucuronidase release, Exp. 4",[6]; [10],9.82%
same,"release from azurophilic granules (β-glucuronidase), in words",[6]; presence of fMLP,not azurophilic granules
same,neutrophil stimulating activity / stimulation of neutrophil respiratory burst (in words),[1],neutrophil stimulating activity
same,priming of neutrophils for the respiratory burst associated with f-met-leu-phe treatment (in words),[1],found to prime human neutrophils for the respiratory burst
same,"lucigenin dependent chemiluminescence, peak of response",[1]; peptide 1 μg/10^6 cells,0.18 mV
same,"lucigenin dependent chemiluminescence, peak of response",[1]; peptide 10 μg/10^6 cells,0.43 mV
same,"lucigenin dependent chemiluminescence, peak of response",[1]; peptide 100 μg/10^6 cells,2.56 mV
same,"lucigenin dependent chemiluminescence, peak of response",[1]; peptide 500 μg/10^6 cells,2.76 mV
same,"chemiluminescence (repeat experiment, Table 3)",[1]; 10 μg/10^6 cells,0.91 mV
same,"chemiluminescence (repeat experiment, Table 3)",[1]; 100 μg/10^6 cells,6.97 mV
same,effect on neutrophil random migration (in words),[7],chemokinetic
same,Inhibition of Migration,[7]; 10 μg/10^6 cells,−43%
same,Inhibition of Migration,[7]; column headed 0 μg/10^6 cells,−16%
same,"Migration distance at 1.5 h, Agent",[3],0.47 mm
same,"Migration distance at 2.5 h, Agent",[3],0.72 mm
A E G Q L Q W L N R R A N A L L A N G (AEGQLQWLNRRANALLANG) [Peptide 307],"lucigenin dependent chemiluminescence, peak of response",[1]; peptide 1 μg/10^6 cells,0.35 mV
same,"lucigenin dependent chemiluminescence, peak of response",[1]; peptide 10 μg/10^6 cells,0.37 mV
same,"lucigenin dependent chemiluminescence, peak of response",[1]; peptide 100 μg/10^6 cells,0.42 mV
V A H V V A N P Q A E G Q L (VAHVVANPQAEGQL) [Peptide 306],"lucigenin dependent chemiluminescence, peak of response",[1]; peptide 1 μg/10^6 cells,0.27 mV
same,"lucigenin dependent chemiluminescence, peak of response",[1]; peptide 10 μg/10^6 cells,0.35 mV
same,"lucigenin dependent chemiluminescence, peak of response",[1]; peptide 100 μg/10^6 cells,0.23 mV
HVLLTHTISRIAVSYQTKVNLL (HVLLTHTISRIAVSYQTKVNLL) [Peptide 309],"chemiluminescence (repeat experiment, Table 3)",[5]; 10 μg/10^6 cells,0.31 mV
same,"chemiluminescence (repeat experiment, Table 3)",[5]; 100 μg/10^6 cells,0.69 mV
same,superoxide formation,"[8]; peptide + fMLP, 10 μg/5 × 10^5 cells",3.87 n moles of O2/5×10^5 cells
same,superoxide formation,"[8]; peptide + fMLP, 100 μg/5 × 10^5 cells",5.14 n moles of O2/5×10^5 cells
same,superoxide formation,"[8]; peptide alone, 10 μg/5 × 10^5 cells",0.62 n moles of O2/5×10^5 cells
same,superoxide formation,"[8]; peptide alone, 100 μg/5 × 10^5 cells",2.30 n moles of O2/5×10^5 cells
same,neutrophil stimulating activity / stimulation of neutrophil respiratory burst (in words),[1],neutrophil stimulating activity
same,priming of neutrophils for the respiratory burst associated with f-met-leu-phe treatment (in words),[1],found to prime human neutrophils for the respiratory burst
same,"Chemiluminescence, neutrophil respiratory burst",[1],4.70 mV
same,"lucigenin dependent chemiluminescence, peak of response",[1]; peptide 1 μg/10^6 cells,0.38 mV
same,"lucigenin dependent chemiluminescence, peak of response",[1]; peptide 10 μg/10^6 cells,0.98 mV
same,"lucigenin dependent chemiluminescence, peak of response",[1]; peptide 100 μg/10^6 cells,13.44 mV
same,"chemiluminescence (repeat experiment, Table 3)",[1]; 10 μg/10^6 cells,2.46 mV
same,"chemiluminescence (repeat experiment, Table 3)",[1]; 100 μg/10^6 cells,12.84 mV
same,effect on neutrophil random migration (in words),[7],potent inhibitors of neutrophil migration
same,Inhibition of Migration,[7]; 10 μg/10^6 cells,0%
same,Inhibition of Migration,[7]; 100 μg/10^6 cells,100%
same,"Migration distance at 1.5 h, Agent",[3],0.53 mm
same,"Migration distance at 2.5 h, Agent",[3],0.68 mm
T I S R I A V S Y Q T (TISRIAVSYQT) [Peptide 323],priming of neutrophils for the respiratory burst associated with f-met-leu-phe treatment (in words),[1],not found to be capable of priming neutrophils
same,"lucigenin dependent chemiluminescence, peak of response",[1]; peptide 1 μg/10^6 cells,0.23 mV
same,"lucigenin dependent chemiluminescence, peak of response",[1]; peptide 10 μg/10^6 cells,0.17 mV
same,"lucigenin dependent chemiluminescence, peak of response",[1]; peptide 100 μg/10^6 cells,0.47 mV
P S A H V L L T H T I (PSAHVLLTHTI) [Peptide 418],neutrophil stimulating activity / stimulation of neutrophil respiratory burst (in words),[1],neutrophil stimulating activity
L R D N Q L V V P S E G L Y L I (LRDNQLVVPSEGLYLI) [Peptide 302],"lucigenin dependent chemiluminescence, peak of response",[1]; peptide 1 μg/10^6 cells,0.16 mV
same,"lucigenin dependent chemiluminescence, peak of response",[1]; peptide 10 μg/10^6 cells,0.18 mV
same,"lucigenin dependent chemiluminescence, peak of response",[1]; peptide 100 μg/10^6 cells,0.29 mV
A K P W Y E P I Y L (AKPWYEPIYL) [Peptide 275],"lucigenin dependent chemiluminescence, peak of response",[1]; peptide 1 μg/10^6 cells,0.99 mV
same,"lucigenin dependent chemiluminescence, peak of response",[1]; peptide 10 μg/10^6 cells,0.69 mV
same,"lucigenin dependent chemiluminescence, peak of response",[1]; peptide 100 μg/10^6 cells,0.43 mV
same,"lucigenin dependent chemiluminescence, peak of response",[1]; peptide 500 μg/10^6 cells,0.80 mV
